Patent publication US8188075B2, “Triazole compounds that modulate HSP90 activity” (Synta Pharmaceuticals Corp., priority 2006, dated 2012)

Columns and labels:
[1] = tested on: HUVEC; assay: HUVEC killing (separate reference experiment); type: cell-based; conditions: Homo sapiens
[2] = tested on: VE-cadherin junctions between HUVEC cells; assay: immunofluorescence study of VE-cadherin junctions between HUVEC cells; type: cell-based, human; conditions: 24 hrs
Description: An immunofluorescence study was performed by using anti-VE-cadherin antibodies (1:1 mixed, obtained from Amersham Biosciences, NJ, and Santa Cruz Biotechnology, CA) to examine VE-cadherin junctions between HUVEC cells. HUVEC cells were treated with DMSO or Compound 226 (10, 100 and 1000 nM) for 24 hrs and fixed for immunostaining. DMSO concentration was 1:100 for all treatments. To boost the immunofluorescence signal, cells were stained with a mixture of 2 polyclonal anti-human VE-cadherin Abs followed by staining with a mixture of fluorescent secondary antibodies. […] Non-DMSO treated cells gave a similar result to those with DMSO treatment (data not shown). […] This effect could result in limited motility of the cells and reducing permeability of the endothelium, thus contributing to the cell migration inhibition and the potential anti-angiogenesis effect of Compound 226.

[3] = tested on: human umbilical vein endothelial cell (HUVEC); assay: in vitro HUVEC migration assay (time-lapse imaging of scraped confluent cultures); type: cell-based
Description: To examine if the compounds of the invention affect endothelial cell function, an in vitro human umbilical vein endothelial cell (HUVEC) migration assay was performed in the presence of Compound 226. HUVEC cells (ATCC, VA) (passage number 4) were cultured in EGM2 medium (Cambrex, Mass.) on 12-well plates and performed time-lapse imaging with the live cell imaging system on an inverted microscope supplied with 6-7% CO2. The temperature was kept at 37° C. Images were taken every 30 minutes using the 2× objective for up to 106 hr (results in FIGS. 1, 2 and 3), or, every 60 seconds using the 20× objective for 30 min (for FIG. 4). Confluent HUVEC cultures were scraped similarly to make a blank area, followed by culturing in HUVEC medium for 15 hr without treatment. The migration areas, which were imaged as time-lapse sequences for each well, were used as a basis to standardize/correct migration rates. Then, migration of cells under different treatments was imaged at the same time to generate time-lapse image sequences for each well. Time-lapse movies were further analyzed by measuring areas that were covered by migrating cells. […] The red lines indicate the front lines of migrating cells. DMSO (1:100) treated cells migrated rapidly and covered the entire blank (wounded) area at 106 hr. […] During experiments, HUVEC cells were activated by the presence of VEGF (Cambrex, Mass.) and basic FGF (Cambrex, Mass.).
In addition to the analysis of HUVEC cell migration, HUVEC behavior was also tracked during above treatments.

CC(C)c1cc(-c2nnc(O)n2-c2ccc3c(ccn3C)c2)c(O)cc1O [Compound 226, 3-(2,4-dihydroxy-5-isopropyl-phenyl)-4-(1-methyl-indol-5-yl)-5-hydroxy-[1,2,4] triazole]
IC50 [1]: ~800 nM
VE-cadherin staining in cell-cell junction regions ([2]; 10 nM, compared to DMSO): extremely strong
VE-cadherin staining areas ([2]; 100 nM): further increase the VE-cadherin staining areas
VE-cadherin molecules distribution ([2]; 1 μM): Aggregations of VE-cadherin molecules appeared
migration of HUVEC cells to the blank area ([3]; 100 nM and 1 μM, up to 106 hr, compared to DMSO, cells activated by VEGF and basic FGF): completely blocked migration
HUVEC cell-cell contact lines (morphology) ([3]; 100 nM, 2× and 20× magnification (FIG. 4)): Cell-cell contact lines disappeared
movement of HUVEC cells in time-lapse videos (20× objective) ([3]; 100 nM, versus DMSO treated cells): significantly reduced movement
IC50 ([3]; Homo sapiens, HUVEC, estimated from similar covered areas at 100 nM and 1 μM (FIG. 2), read-out: IC50 of the inhibition of HUVEC migration): < 100 nM
HUVEC cell shrinkage ([3]; after 24 hr treatment with 100 nM and 1 μM): began to shrink
cell death of HUVEC during migration assay ([3]; at 24 hr (FIG. 3)): no significant cell death
HUVEC cell survival ([3]; at 48 hr, 1 μM): majority of cells were alive
